From patent publication US20240158348A1, “HERBICIDAL CYCLIC AMIDES N-SUBSTITUTED WITH A HALOALKYLSULFONYLANILIDE GROUP” (FMC Corporation, priority 2021, published 2024)

Legend:
Assay type in all cases: in vivo
[1] = system: blackgrass (Alopecurus myosuroides); test: Test C preemergence, blackgrass; details: 0 is no effect, 100 is complete control
How it was run: (§1)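 Plants grown in a sand and loam soil blend received the formulated test chemicals either as a preemergence soil-directed spray or postemergence at 2 to 10 cm height. After 10 or 12 greenhouse days, injury was assessed visually, with 100 meaning complete control.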

[2] = system: sedge, umbrella (small-flower umbrella sedge, Cyperus difformis); test: Test D flooded paddy test, umbrella sedge; parameters: key: 0 = no effect, 100 = complete control; details: 250 g ai/ha, Flood; applied to paddy water at 2-leaf stage; visual rating after 13 days; scale 0 (no effect) to 100 (complete control)
How it was run: (§2)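 Plants were grown to the 2-leaf stage, then pots were flooded to 3 cm above soil and compounds applied directly into the paddy water, with that depth held throughout. After 13 days in a greenhouse, injury was visually rated against untreated controls on a 0–100 scale (0 no effect, 100 complete control).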

rice (Oryza sativa) = test: Test D flooded paddy test, rice; parameters: key: 0 = no effect, 100 = complete control; details: 250 g ai/ha, Flood; applied to paddy water at 2-leaf stage; visual rating after 13 days; scale 0 (no effect) to 100 (complete control)
How it was run: as §2

[3] = system: horseweed (Erigeron canadensis); test: Test C postemergence, horseweed; details: for Horseweed plant response rating: 31 g ai/ha Postemergence, visual injury, 0 to 100 scale (0 no effect, 100 complete control); for Plant response rating (0 to 100 scale), Horseweed: 125 g ai/ha Postemergence, 0 is no effect, 100 is complete control
How it was run: as §1

[4] = system: oat, wild (wild oat, Avena fatua); test: Test C preemergence, wild oat; details: 0 is no effect, 100 is complete control
How it was run: as §1

[5] = system: galium (catchweed bedstraw, Galium aparine); test: Test C postemergence, galium; details: for Galium plant response rating: 31 g ai/ha Postemergence, visual injury, 0 to 100 scale (0 no effect, 100 complete control); for Plant response rating (0 to 100 scale), Galium: 125 g ai/ha Postemergence, 0 is no effect, 100 is complete control
[6] = system: blackgrass (Alopecurus myosuroides); test: Test C postemergence, blackgrass; details: 125 g ai/ha Postemergence; 0 is no effect, 100 is complete control
kochia (Bassia scoparia) = test: Test C postemergence, kochia; details: for Kochia plant response rating: 31 g ai/ha Postemergence, visual injury, 0 to 100 scale (0 no effect, 100 complete control); for Plant response rating (0 to 100 scale), Kochia: 125 g ai/ha Postemergence, 0 is no effect, 100 is complete control
How it was run: as §1

[7] = system: pigweed, palmer (palmer amaranth, Amaranthus palmeri); test: Test C postemergence, palmer amaranth; details: for Pigweed, Palmer plant response rating: visual injury, 0 to 100 scale (0 no effect, 100 complete control); for Plant response rating (0 to 100 scale), Pigweed, Palmer: 0 is no effect, 100 is complete control
How it was run: as §1

Row | Compound | Plant response rating (0 to 100 scale), Blackgrass ([1]; 31 g ai/ha Preemergence) | Plant response rating (0 to 100 scale), Blackgrass ([1]; 125 g ai/ha Preemergence) | Plant response rating, Sedge, Umbrella [2] | Plant response rating, Rice (rice (Oryza sativa)) | Horseweed plant response rating [3] | Plant response rating (0 to 100 scale), Horseweed [3] | Plant response rating (0 to 100 scale), Oat, Wild ([4]; 31 g ai/ha Preemergence) | Plant response rating (0 to 100 scale), Oat, Wild ([4]; 125 g ai/ha Preemergence) | Galium plant response rating [5] | Plant response rating (0 to 100 scale), Galium [5] | Plant response rating (0 to 100 scale), Blackgrass [6] | Kochia plant response rating (kochia (Bassia scoparia)) | Plant response rating (0 to 100 scale), Kochia (kochia (Bassia scoparia)) | Pigweed, Palmer plant response rating ([7]; 31 g ai/ha Postemergence) | Plant response rating (0 to 100 scale), Pigweed, Palmer ([7]; 125 g ai/ha Postemergence) | Pigweed, Palmer plant response rating ([7]; 125 g ai/ha Postemergence)
1 | CCO/N=C1\CCN(c2cc(NS(=O)(=O)C(F)(F)F)c(C)cc2C)C1=O [Compound 12, N-[5-[3-(ethoxyimino)-2-oxo-1-pyrrolidinyl]-2,4-dimethylphenyl]-1,1,1-trifluoromethanesulfonamide] | 80 | 100 | 100 | 40 | 90 | 100 | 90 | 100 | 100 | 100 | 100 | 90 | 90 | 80 | 100 | –
2 | C#CCO/N=C1\CCN(c2cc(NS(=O)(=O)C(F)(F)F)c(C)cc2C)C1=O [Compound 13, N-[2,4-dimethyl-5-[2-oxo-3-[(2-propyn-1-yloxy)imino]-1-pyrrolidinyl]phenyl]-1,1,1-trifluoromethanesulfonamide] | 90 | 100 | 100 | 35 | 70 | 90 | 100 | 100 | 100 | 100 | 90 | 90 | 90 | 80 | 90 | –
3 | Cc1cc(C)c(N2CCC(O)C2=O)cc1NS(=O)(=O)C(F)(F)F (stereo not drawn) [Compound 14] | 60 | 90 | 35 | 25 | 90 | 90 | 10 | 60 | 100 | 100 | 70 | 50 | 70 | 40 | 90 | –
4 | COC(=O)N(c1cc(N2CCC(OC3CC3)C2=O)c(C)cc1C)S(=O)(=O)C(F)(F)F (stereo not drawn) [Compound 16] | 0 | 0 | 0 | 0 | 0 | 30 | 0 | 0 | 50 | 50 | 0 | 20 | 10 | 0 | 0 | –
5 | CC(=O)N(c1cc(N2CCC(OC3CC3)C2=O)c(C)cc1C)S(=O)(=O)C(F)(F)F (stereo not drawn) [Compound 17] | 80 | 90 | 95 | 15 | 70 | 100 | 90 | 100 | 90 | 100 | 80 | 80 | 90 | 40 | 90 | –
6 | Cc1cc(C)c(N(C(=O)OC(C)C)S(=O)(=O)C(F)(F)F)cc1N1CCC(OC2CC2)C1=O (stereo not drawn) [Compound 18] | 0 | 0 | 0 | 0 | 0 | 0 | 0 | 0 | 10 | 70 | 0 | 20 | 70 | 0 | 20 | –
7 | CCOC(=O)N(c1cc(N2CCC(OC3CC3)C2=O)c(C)cc1C)S(=O)(=O)C(F)(F)F (stereo not drawn) [Compound 19] | 0 | 40 | 0 | 0 | 10 | 30 | 0 | 40 | 30 | 90 | 40 | 30 | 70 | 0 | 10 | –
8 | CCCC(=O)OCN(c1cc(N2CCC(OC3CC3)C2=O)c(C)cc1C)S(=O)(=O)C(F)(F)F (stereo not drawn) [Compound 20] | 80 | 100 | 98 | 15 | 60 | 90 | 60 | 100 | 90 | 100 | 90 | 70 | 80 | 50 | 80 | –
9 | Cc1cc(C)c(N(C(=O)OCC(C)C)S(=O)(=O)C(F)(F)F)cc1N1CCC(OC2CC2)C1=O (stereo not drawn) [Compound 21] | 10 | 80 | 98 | 85 | 60 | 90 | 30 | 90 | 100 | 100 | 80 | 70 | 80 | 30 | 70 | –
10 | Cc1cc(C)c(N2CCC(OCC3CC3)C2=O)cc1NS(=O)(=O)C(F)(F)F (stereo not drawn) [Compound 22] | 50 | 90 | 95 | 55 | 90 | 90 | 90 | 100 | 100 | 100 | 90 | 60 | 70 | 50 | 80 | –
11 | Cc1c(N2CCC(OC3CC3)C2=O)cc(N(COC(=O)C(C)(C)C)S(=O)(=O)C(F)(F)F)c(C)c1F (stereo not drawn) [Compound 23] | 0 | 10 | 95 | 40 | 80 | 90 | 40 | 90 | 90 | 100 | 50 | 30 | 80 | 50 | 70 | –
12 | Cc1cc(C)c(N2CCC(OC3COC3)C2=O)cc1NS(=O)(=O)C(F)(F)F (stereo not drawn) [Compound 34] | 30 | 50 | 80 | 25 | 90 | 100 | 30 | 80 | 100 | 100 | 60 | 80 | 90 | 70 | – | 100
13 | Cc1c(NS(=O)(=O)C(F)(F)F)cc(N2CCCC(OC3CC3)C2=O)c(C)c1F (stereo not drawn) [Compound 35] | 70 | 100 | 95 | 0 | 90 | 100 | 20 | 90 | 70 | 100 | 60 | 50 | 90 | 40 | – | 70
